In patent US11419913B2, “Pharmaceutical compositions for inhibiting inflammatory cytokines” (S.I.S. SHULOV INNOVATIVE SCIENCE LTD., priority 2018, dated 2022):
Where a SMILES comes first, the peptide text is derived from it. [ ]: non-standard residue; d: D form. The star is where a group is joined. pGlu = O=C1CC[C@@H](C(=O)O)N1; Octanoyl = CCCCCCCC(=O)*

What was measured:
[1] = system: TNF alpha; assay: ZEP3 pretreatment, expression of TNF alpha by LPS treated macrophages; type: cell-based, mouse; details: ZEP3 50 μg/mL 1 hour before LPS 100 ng/mL
Description: Macrophages originating from C57BL/6 mice were cultured at a density of 200,000 cells/mL in a 24-well plate (500 μl wells) and placed in a 37° C., 5% CO2 Incubator overnight. Following the overnight incubation media were replaced with fresh media containing 50 μg/ml ZEP3. Following 1-hour incubation 100 ng/mL LPS was added to the appropriate wells, the plates were incubated for additional 24 hours, then the amount of TNF alpha in each well was measured.

[2] = system: Reactive Oxygen Species (ROS); assay: ROS production in corneal epithelial cell culture dry eye disease model; type: cell-based, human
Description: (§1) The anti-inflammatory effect of the peptides in experimental corneal inflammation was tested in a cell culture model using various inflammasome inducers such as LPS, 4-HNE, Nigericin and others to model a dry-eye-disease (DED). Using a dose-response model, human primary corneal epithelial cells were pre-treated with the peptides followed by exposure to DED inducers. Expression of IL-6 was measured as well as cell viability, ROS production.
(§2) Human primary Corneal Epithelial Cells (PCS-700-010; HCECs) were treated with ZEP3 at concentrations ranging from 3 to 12 μg/ml for 2 hours then exposed to LPS, 4-HNE or Nigericin for 24 hours. Following incubation, the levels of the pro-inflammatory cytokine IL-6, cell viability and reactive oxygen species (ROS) production in the cell cultures were measured.

[3] = system: RANTES; assay: RANTES production in LPS-stimulated human PBMCs; type: cell-based; details: ZEP3 40, 100 and 150 μg/ml, 1 hr pre-treatment, LPS 24 hours; 4 donors (FIG. 12)
Description: (§3) The effect of the peptide ZEP3 (SEQ ID NO: 1) on cytokine production was evaluated in an in vitro human model of inflammation. Human Peripheral Blood Mononuclear Cells (PBMCs) were stimulated using Lipopolysaccharide (LPS) to produce cytokines.
(§4) Method: Briefly, cryopreserved human PBMCs of four healthy non-smokers, not on any corticosteroids or other inflammatory drugs, were grown in RPMI 1640 with 10% heat inactivated fetal bovine serum (FBS), 100 U/ml penicillin and 100 μg/mL streptomycin (complete growth medium, CGM).
(§5) Human PBMCs were thawed and plated for all groups (1-6, Table 7), and rested for 1 hour before treatment. […] 24 hours post LPS addition, Almar Blue fluorescent at 585 nm (correlating with cell viability), is measured and supernatant is collected for cytokine determination. […]
(§6) Detailed method: cells were thawed according to manufacturer's instructions, washed in CGM and assessed for viability using trypan blue staining. […] At 24 hours post LPS stimulation, plates were read for assessment of cell viability and cell culture supernatants were harvested and stored at −80° C. for cytokine analysis. […] Cytokine production and percentage of sample stimulation vs. the average of the stimulation control were calculated.

[4] = system: Human primary Corneal Epithelial Cells; assay: Cell viability (LDH assay) in corneal epithelial cell culture dry eye disease model; type: cell-based
Description: as §1, §2

[5] = system: IL-1B; assay: IL-1B production in LPS-stimulated human PBMCs; type: cell-based; details: ZEP3 40, 100 and 150 μg/ml, 1 hr pre-treatment, LPS 24 hours; 4 donors
Description: as §3, §4, §5, §6

[6] = system: IFNγ; assay: IFN-γ production in LPS-stimulated human PBMCs; type: cell-based; details: ZEP3 40, 100 and 150 μg/ml, 1 hr pre-treatment, LPS 24 hours; 4 donors (FIG. 9)
Description: as §3, §4, §5, §6

[7] = system: B6 Macrophage cells; assay: Viability of macrophages activated by LPS and palmitic acid (LDH Cytotoxicity Assay Kit); type: cell-based, mouse; details: ZEP3 50 μg/ml, LPS 100 ng/ml; for OD (LDH Cytotoxicity Assay): 24 hours
Description: Macrophages originating from C57BL/6 mice were cultured at a density of 200,000 cells/mL in a 24-well plate (500 μl well) and incubated at 37° C. and 5% CO2 overnight. Following the overnight incubation, media were replaced with fresh media containing 100 ng/mL LPS, followed by three hours incubation. The LPS-containing media in the treatment groups were then replaced with fresh media containing ZEP3 at concentration of 50 μg/ml, followed by one-hour incubation. Next, palmitic acid (100, 200 or 400 μM) was added to the appropriate wells. The plates were incubated for additional 24 hours and the viability of cells was estimated using an LDH Cytotoxicity Assay Kit.

[8] = system: IL-6; assay: IL-6 in corneal epithelial cell culture dry eye disease model; type: cell-based, human
Description: as §1, §2

`CCCCCCCC(=O)NCCCC[C@H](NC(=O)[C@H](Cc1c[nH]c2ccccc12)NC(=O)[C@H](CC(N)=O)NC(=O)[C@@H]1CCC(=O)N1)C(=O)O` [ZEP3, pGlu-Asn-Trp-Lys(Octanoyl)-OH] ([pGlu]NWK(Octanoyl)-OH) was tested, and the TNF alpha ([1]; 24 hours) was 101.2 pg/mL, the “% reduction of TNF alpha” value ([1]; vs LPS control) was 46.7% and the “level of ROS in cell culture” value ([2]; HCECs pre-treated with ZEP3, exposed to 4-HNE for 24 hours, DCFDA kit (FIG. 8)) was 13000±800 RFU. For the same compound, the “reduction of ROS level” value ([2]; ZEP3 treated vs untreated cell culture, 4-HNE 24 hours (FIG. 8)) was 51.9%, the RANTES production [3] was “significant reduction” and the cell death density ([4]; HCECs treated with ZEP3 and exposed to inflammation inducer, LDH assay (FIG. 6)) was 3.625±1.092%. For the same compound, the “reduction of cell death density” value ([4]; ZEP3 treated vs untreated cell culture (FIG. 6)) was 82.8%, the IL-1B production [5] was “significant reduction” and the “interferon gamma (IFNγ) production” value [6] was “significant reduction”. The “OD (LDH Cytotoxicity Assay)” value ([7]; palmitic acid 100 μM) was 1.437, the “OD (LDH Cytotoxicity Assay)” value ([7]; palmitic acid 200 μM) was 1.496 and the “OD (LDH Cytotoxicity Assay)” value ([7]; palmitic acid 400 μM) was 1.6095. For the same compound, the “effect on the viability of inflammation-induced macrophage cells” value ([7]; palmitic acid 100, 200 or 400 μM) was “no significant effect”, the level of IL-6 in cell culture ([8]; HCECs pre-treated with ZEP3 (3 to 12 μg/ml, 2 hours), exposed to 4-HNE for 24 hr (FIG. 7)) was 38.1 ± 1.37 pg/mL and the “reduction of IL-6 level” value ([8]; ZEP3 treated vs untreated cell culture, 4-HNE 24 hr (FIG. 7)) was 27.4%.
